According to US20230061858A1, “TREATMENT WITH SITE SPECIFIC HER2 ANTIBODY-DRUG CONJUGATES” (Pfizer Inc., priority 2019, published 2023):
Where a SMILES comes first, the peptide text is derived from it. [ ]: non-standard residue; d: D form. The star is where a group is joined. Dolaproine = CO[C@@H]([C@@H]1CCCN1)[C@@H](C)C(=O)O; Dil = CC[C@H](C)[C@H](NC)[C@@H](CC(=O)O)OC; Doe = c1ccc(C[C@H](N*)c2nccs2)cc1; Aib = CC(C)(N)C(=O)O

Assay: Phase 1 pharmacokinetic assessment, Cycle 1 serum concentrations
Type: in vivo, human
Protocol: Pharmacokinetic assessments included quantifying the serum concentrations of T(kK183C+K290C)-vc0101 ADC (measured as conjugated payload), total antibody, and unconjugated payload using validated bioanalytical assays on blood samples collected before treatment and during the study. Specifically, total antibody concentrations were measured using ELISA method, T(kK183C+K290C)-vc0101 ADC concentrations were measured as conjugated payload using a hybrid LC-MS/MS method, and unconjugated payload concentrations will be measured using an LC-MS/MS method. For preliminary PK assessment, mean serum concentration-time profiles of T(kK183C+K290C)-vc0101 ADC were generated for each dose cohort; Noncompartmental PK parameters were estimated from Cycle 1 concentration-time data using nominal sampling time. For T(kK183C+K290C)-vc0101 ADC and total antibody, PK parameters including the maximum plasma concentration (Cmax), time to maximum plasma concentration (Tmax), and area under the plasma concentration versus time curve (AUCinf, AUCτ), clearance (CL), volume of distribution at steady state (Vss), terminal half-life (t1/2), and accumulation ratio (Rac) were calculated. For unconjugated payload, PK parameters including Cmax, Tmax, AUCinf, AUCτ, t1/2, and Rac, were calculated.

## CC[C@H](C)[C@@H]([C@@H](CC(=O)N1CCC[C@H]1[C@H](OC)[C@@H](C)C(=O)N[C@@H](Cc1ccccc1)c1nccs1)OC)N(C)C(=O)[C@@H](NC(=O)C(C)(C)N)C(C)C [unconjugated payload, 2-methylalanyl-N-[(3R,4S,5S)-3-methoxy-1-{(2S)-2-[(1R,2R)-1-methoxy-2-methyl-3-oxo-3-{[(1S)-2-phenyl-1-(1,3-thiazol-2-yl)ethyl]amino}propyl]pyrrolidin-1-yl}-5-methyl-1-oxoheptan-4-yl]-N-methyl-L-valinamide] (H-[Aib]V[Dil][Dolaproine]-Doe)
0.15-5.0 mg/kg, Cycle 1
  exposure following IV administration of PF-06804103: Dose-dependent increases
Cycle 1, after IV PF-06804103
  Serum concentrations compared with ADC: substantially lower than those of ADC
